Assay results as given in patent US9693556B2, “Herbicidal pyridazinone derivatives” (SYNGENTA LIMITED, priority 2011, dated 2017).

What was measured:
Format in all cases: in vivo
[1] = test system: Alopecurus myosuroides (ALOMY); assay: Pre-emergence herbicidal glasshouse test on Alopecurus myosuroides; conditions: pre-emergence; 1000 g/h; evaluated after 13 days
How it was run: (§1)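 Scoring scale: 5=80-100%, 4=60-79%, 3=40-59%, 2=20-39%, 1=0-19% damage, assessed on day 13. Compound sprayed at 1000 g/h on soil-grown plants (day 1 pre-, day 8 post-emergence) kept at 24/16 °C, 14 h light.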

Solanum nigrum (SOLNI) [2] = assay: Pre-emergence herbicidal glasshouse test on Solanum nigrum; conditions: pre-emergence; 1000 g/h; evaluated after 13 days
How it was run: as §1

[3] = test system: Amaranthus retoflexus (AMARE); assay: Post-emergence herbicidal glasshouse test on Amaranthus retoflexus; conditions: post-emergence; 1000 g/h; evaluated after 13 days
How it was run: as §1

[4] = test system: Echinochloa crus-galli (ECHCG); assay: Post-emergence herbicidal glasshouse test on Echinochloa crus-galli; conditions: post-emergence; 1000 g/h; evaluated after 13 days
How it was run: as §1

[5] = test system: Ipomoea hederacea (IPOHE); assay: Post-emergence herbicidal glasshouse test on Ipomoea hederacea; conditions: post-emergence; 1000 g/h; evaluated after 13 days
How it was run: as §1

[6] = test system: Amaranthus retoflexus (AMARE); assay: Pre-emergence herbicidal glasshouse test on Amaranthus retoflexus; conditions: pre-emergence; 1000 g/h; evaluated after 13 days
How it was run: as §1

[7] = test system: Alopecurus myosuroides (ALOMY); assay: Post-emergence herbicidal glasshouse test on Alopecurus myosuroides; conditions: post-emergence; 1000 g/h; evaluated after 13 days
How it was run: as §1

[8] = test system: Echinochloa crus-galli (ECHCG); assay: Pre-emergence herbicidal glasshouse test on Echinochloa crus-galli; conditions: pre-emergence; 1000 g/h; evaluated after 13 days
How it was run: as §1

Setaria faberi (SETFA) [9] = assay: Pre-emergence herbicidal glasshouse test on Setaria faberi; conditions: pre-emergence; 1000 g/h; evaluated after 13 days
How it was run: as §1

[10] = test system: Ipomoea hederacea (IPOHE); assay: Pre-emergence herbicidal glasshouse test on Ipomoea hederacea; conditions: pre-emergence; 1000 g/h; evaluated after 13 days
How it was run: as §1

Setaria faberi (SETFA) [11] = assay: Post-emergence herbicidal glasshouse test on Setaria faberi; conditions: post-emergence; 1000 g/h; evaluated after 13 days
How it was run: as §1

Solanum nigrum (SOLNI) [12] = assay: Post-emergence herbicidal glasshouse test on Solanum nigrum; conditions: post-emergence; 1000 g/h; evaluated after 13 days
How it was run: as §1

| SMILES | PRE Application ALOMY herbicidal damage (five point scale) [1] | PRE Application SOLNI herbicidal damage (five point scale) (Solanum nigrum (SOLNI) [2]) | POST Application AMARE herbicidal damage (five point scale) [3] | POST Application ECHCG herbicidal damage (five point scale) [4] | POST Application IPOHE herbicidal damage (five point scale) [5] | PRE Application AMARE herbicidal damage (five point scale) [6] | POST Application ALOMY herbicidal damage (five point scale) [7] | PRE Application ECHCG herbicidal damage (five point scale) [8] | PRE Application SETFA herbicidal damage (five point scale) (Setaria faberi (SETFA) [9]) | PRE Application IPOHE herbicidal damage (five point scale) [10] | POST Application SETFA herbicidal damage (five point scale) (Setaria faberi (SETFA) [11]) | POST Application SOLNI herbicidal damage (five point scale) (Solanum nigrum (SOLNI) [12]) |
| --- | --- | --- | --- | --- | --- | --- | --- | --- | --- | --- | --- | --- |
| COc1ccc(Cl)c(-c2cnn(C)c(=O)c2O)c1 [Compound 1.090] | 1 (1=0-19% damage) | 1 (1=0-19% damage) | 1 (1=0-19% damage) | 1 (1=0-19% damage) | 1 (1=0-19% damage) | 1 (1=0-19% damage) | 1 (1=0-19% damage) | 1 (1=0-19% damage) | 1 (1=0-19% damage) | 1 (1=0-19% damage) | 1 (1=0-19% damage) | 2 (2=20-39% damage) |
| Cn1ncc(-c2ccc(Cl)c(Cl)c2Cl)c(O)c1=O [Compound 1.091] | 1 (1=0-19% damage) | 1 (1=0-19% damage) | 1 (1=0-19% damage) | 1 (1=0-19% damage) | 1 (1=0-19% damage) | 1 (1=0-19% damage) | 1 (1=0-19% damage) | 1 (1=0-19% damage) | 1 (1=0-19% damage) | 1 (1=0-19% damage) | 1 (1=0-19% damage) | 2 (2=20-39% damage) |
| Cn1ncc(-c2ccc(Cl)c(F)c2Cl)c(O)c1=O [Compound 1.092] | 1 (1=0-19% damage) | 1 (1=0-19% damage) | 1 (1=0-19% damage) | 1 (1=0-19% damage) | 2 (2=20-39% damage) | 1 (1=0-19% damage) | 1 (1=0-19% damage) | 1 (1=0-19% damage) | 1 (1=0-19% damage) | 1 (1=0-19% damage) | 1 (1=0-19% damage) | 2 (2=20-39% damage) |
| Cc1cc(F)ccc1-c1cnn(C)c(=O)c1O [Compound 1.093] | 1 (1=0-19% damage) | 1 (1=0-19% damage) | 1 (1=0-19% damage) | 1 (1=0-19% damage) | 1 (1=0-19% damage) | 1 (1=0-19% damage) | 1 (1=0-19% damage) | 1 (1=0-19% damage) | 1 (1=0-19% damage) | 1 (1=0-19% damage) | 1 (1=0-19% damage) | 2 (2=20-39% damage) |
| Cc1ccc(F)cc1-c1cnn(C)c(=O)c1O [Compound 1.094] | 1 (1=0-19% damage) | 1 (1=0-19% damage) | 1 (1=0-19% damage) | 1 (1=0-19% damage) | 1 (1=0-19% damage) | 1 (1=0-19% damage) | 1 (1=0-19% damage) | 1 (1=0-19% damage) | 1 (1=0-19% damage) | 1 (1=0-19% damage) | 1 (1=0-19% damage) | 2 (2=20-39% damage) |
| Cn1ncc(-c2cccc3ccccc23)c(O)c1=O [Compound 1.095] | 1 (1=0-19% damage) | 1 (1=0-19% damage) | 1 (1=0-19% damage) | 1 (1=0-19% damage) | 1 (1=0-19% damage) | 1 (1=0-19% damage) | 1 (1=0-19% damage) | 1 (1=0-19% damage) | 1 (1=0-19% damage) | 1 (1=0-19% damage) | 1 (1=0-19% damage) | 1 (1=0-19% damage) |
| Cn1ncc(-c2cc(C(F)(F)F)ccc2F)c(O)c1=O [Compound 1.096] | 1 (1=0-19% damage) | 1 (1=0-19% damage) | 1 (1=0-19% damage) | 1 (1=0-19% damage) | 2 (2=20-39% damage) | 1 (1=0-19% damage) | 1 (1=0-19% damage) | 1 (1=0-19% damage) | 1 (1=0-19% damage) | 1 (1=0-19% damage) | 1 (1=0-19% damage) | 1 (1=0-19% damage) |
| Cc1ccc(-c2cnn(C)c(=O)c2O)c(Cl)c1 [Compound 1.098] | 1 (1=0-19% damage) | 1 (1=0-19% damage) | 2 (2=20-39% damage) | 1 (1=0-19% damage) | 2 (2=20-39% damage) | 1 (1=0-19% damage) | 1 (1=0-19% damage) | 1 (1=0-19% damage) | 1 (1=0-19% damage) | 1 (1=0-19% damage) | 1 (1=0-19% damage) | 3 (3=40-59% damage) |
| Cn1ncc(-c2cc(Cl)ccc2Cl)c(O)c1=O [Compound 1.099] | 1 (1=0-19% damage) | 1 (1=0-19% damage) | 3 (3=40-59% damage) | 1 (1=0-19% damage) | 2 (2=20-39% damage) | 1 (1=0-19% damage) | 1 (1=0-19% damage) | 1 (1=0-19% damage) | 1 (1=0-19% damage) | 1 (1=0-19% damage) | 1 (1=0-19% damage) | 2 (2=20-39% damage) |
